In PMC8659243, “Design, Synthesis and Tumour-Selective Toxicity of Novel 1-[3-{3,5-Bis(benzylidene)-4-oxo-1-piperidino}-3-oxopropyl]-4-piperidone Oximes and Related Quaternary Ammonium Salts” (Molecules, 2021):
Where two headings read alike, the source gives them in different places.

Assays:
[1] = test system: Ca9-22 cells; experiment: Cytotoxicity against Ca9-22 cells, MTT method, 48 h; assay type: cell-based, human; conditions: for CC50: Homo sapiens, read-out: CC50 Ca9-22; for SI Ca9-22: average CC50 towards HGF, HPLF, HPC divided by CC50 against Ca9-22
Description: (§1) A literature procedure was followed when the compounds in series 3 and 4 were evaluated against three human oral squamous cell carcinoma cell lines Ca9-22 (RCB-1976), HSC-2 (RCB1945), HSC-4 (RCB1902) (purchased from RIKEN Cell Bank, Tukuba, Japan) and three human normal oral cells, gingival fibroblast (HGF), periodontal ligament fibroblast (HPLF) and pulp cells (HPC) (established according to the guideline of the intramural ethic committee, A0808) except the duration of incubation was increased from 24 h to 48 h. In brief, various concentrations of the compounds were added to the DMEM media, which was supplemented by 10% heat-inactivated fetal bovine serum. Incubation was undertaken at 37 °C. At the completion of the experiment, cell viability was determined by the MTT method.

[2] = Cytotoxicity against non-malignant HGF cells, MTT method, 48 h; assay type: cell-based; conditions: human, gingival fibroblasts (HGF)
Description: as §1

[3] = Average over HGF, HPLF and HPC non-malignant cells; assay type: cell-based; conditions: human, HPLF and HPC non-malignant cells (average of the three)
Description: as §1

[4] = test system: Ca9-22 cells; experiment: Cell cycle analysis and morphological changes in Ca9-22 cells; assay type: cell-based, human; conditions: 24 h
Description: Treated and untreated Ca9-22 cells (approximately 10^6 cells) were harvested, fixed with 1% paraformaldehyde, treated with 0.2 mg/mL RNase A (preheated for 10 min at 100 °C to inactivate DNase), stained for 15 min with 0.01% propidium iodide in the presence of 0.01% NP-40 to prevent cell aggregation, filtered through Falcon® cell strainers ([…]) (Corning, NY, USA), subjected to cell sorting (SH800 Series; SONY Imaging Products and Solutions Inc., Kanagawa, Japan) and then analyzed with Cell Sorter Software version 2.1.2. (SONY Imaging Products and Solutions Inc., Kanagawa, Japan), as described previously.

[5] = test system: Ca9-22, HSC-2 and HSC-4 cells; experiment: Average over Ca9-22, HSC-2 and HSC-4 neoplastic cells; assay type: cell-based, human; conditions: for CC50: Homo sapiens, read-out: Average CC50; for Average SI: average of SI for Ca9-22, HSC-2 and HSC-4
Description: In order to assess whether the compounds in series 3 and 4 are more toxic to neoplasms than non-malignant cells, selective index (SI) figures were calculated. In the in vivo situation, a tumour is surrounded by a number of non-malignant cells.
In order to identify the most promising lead compounds in terms of both cytotoxic potencies and favourable SI values, potency–selectivity expression (PSE) values were computed. […] Outstanding results may be noted for four compounds that have PSE values in excess of 100,000 namely 3d, 4c–e. […] However, the relative SI/PSE distribution patterns between series 3 and 4 (from a to h) are nearly superimposable with each other (Figure 3). […] It has been reported that 3,5-bis(3-iodo-5-methoxy-4-propoxybenzylidene)-N-acetylpiperidin-4-one inhibited tubulin and destabilization of microtubules, while 3,5-bis(3,4,5-trimethoxybenzylidene)-N-benzoylpiperidin-4-one destabilizes the microtubules. Thus, it remained to investigate whether compound 4d acts as an inhibitor of the microtubule.
as §1

[6] = Cytotoxicity against non-malignant HPLF cells, MTT method, 48 h; assay type: cell-based; conditions: human, periodontal ligament fibroblasts (HPLF)
Description: as §1

[7] = test system: HSC-2 cells; experiment: Cytotoxicity against HSC-2 cells, MTT method, 48 h; assay type: cell-based, human; conditions: for CC50: Homo sapiens, HSC-2, concentration required to kill 50% of the cells, 48 h, MTT; for SI HSC-2: average CC50 towards HGF, HPLF, HPC divided by CC50 against HSC-2
Description: as §1

[8] = test system: HSC-4 cells; experiment: Cytotoxicity against HSC-4 cells, MTT method, 48 h; assay type: cell-based, human; conditions: for CC50: Homo sapiens, read-out: CC50 HSC-4; for SI HSC-4: average CC50 towards HGF, HPLF, HPC divided by CC50 against HSC-4
Description: as §1

[9] = test system: CEM T-lymphoblastic leukemia cells; experiment: Cytotoxicity against CEM cells, MTT method, 24 h; assay type: cell-based; conditions: Homo sapiens, CCRF-CEM, concentration required to inhibit cell growth by 50%
Description: The method used for the evaluation of various compounds against human CEM cells has been reported previously. In brief, cells were grown in RPMI-1640 medium supplemented with 10% heat-inactivated fetal bovine serum. Different concentrations of compounds were added to the media, and after 24 h incubation, cytotoxicity was measured by the MTT method.

[10] = Cytotoxicity against non-malignant HPC cells, MTT method, 48 h; assay type: cell-based; conditions: human, pulp cells (HPC)
Description: as §1

[11] = test system: HL-60 (TB), K-562, RPMI-8226 and SR cells; parameters: method as in PMID 24657568; conditions: read-out: average IC50 against HL-60 (TB), K-562, RPMI-8226 and SR cells; cited from earlier work
[12] = test system: CEM cells; experiment: Effect on mitochondrial membrane potential, JC-1 dye, flow cytometry; assay type: cell-based, human; conditions: CC50 and twice CC50 concentrations, 8 h
Description: The effect of 4b,c on the mitochondrial membrane potential of CEM cells was determined using a literature method. In brief, the cells were incubated with the compounds for 8 h. The neoplasms were then stained with the JC-1 dye and the results were obtained using flow cytometry.

[13] = test system: COLO 205, HCC2998, HCT-15, KM12 and SW-620 cells; conditions: read-out: average IC50 against COLO 205, HCC2998, HCT-15, KM12 and SW-620 cells; cited from earlier work
[14] = Stability by 1H NMR in 9:1 deuterated dimethylsulfoxide and deuterium oxide; assay type: physicochemical; conditions: 37 °C
[15] = Ca9-22, concentration required to kill 50% of the cells, 48 h, MTT
[16] = average of Ca9-22, HSC-2 and HSC-4
[17] = HSC-4, concentration required to kill 50% of the cells, 48 h, MTT

C[N+]1(CCC(=O)N2C/C(=C\c3ccc(Cl)c(Cl)c3)C(=O)/C(=C/c3ccc(Cl)c(Cl)c3)C2)CCC(=NO)CC1 (stereo not drawn) [Compound 4d, (3~{E},5~{E})-3,5-bis[(3,4-dichlorophenyl)methylene]-1-[3-(4-hydroximino-1-piperidyl)propanoyl]piperidin-4-one methiodide]
CC50 [1, 15]: 0.01 µM
SI Ca9-22 [1]: 236
CC50 at 48 h [2]: 1.15 ± 0.41 µM
CC50 at 48 h [3]: 2.36 µM
morphological change and cell cycle effect [4]: induced cell spreading due to G2/M cell accumulation without the induction of a subG1 population
CC50 [5, 16]: 0.02 µM
CC50 at 48 h [6]: 2.12 ± 0.2 µM
CC50 [7]: 0.03 µM
SI HSC-2 [7]: 78.7
CC50 [8, 17]: 0.03 µM
SI HSC-4 [8]: 78.7
IC50 [9]: 5.19 ± 0.66 µM
CC50 at 48 h [10]: 3.81 ± 0.02 µM

N[C@@H](Cc1ccc(N(CCCl)CCCl)cc1)C(=O)O [Melphalan, reference compound]
CC50 ([1]; Ca9-22, 48 h): 48.5 ± 1.33 µM
CC50 at 48 h [2]: 157 ± 38.2 µM
CC50 [5]: 26.7 µM
CC50 at 48 h [6]: 195 ± 4.04 µM
CC50 ([8]; HSC-4, 48 h): 17.4 ± 0.88 µM
IC50 [11]: 56.7 µM
CC50 at 48 h [10]: > 200 µM

C[N+]1(CCC(=O)N2C/C(=C\c3ccc(Cl)cc3)C(=O)/C(=C/c3ccc(Cl)cc3)C2)CCC(=NO)CC1 (stereo not drawn) [Compound 4c, (3~{E},5~{E})-3,5-bis[(4-chlorophenyl)methylene]-1-[3-(4-hydroximino-1-piperidyl)propanoyl]piperidin-4-one methiodide]
CC50 [1, 15]: 0.02 ± 0.01 µM
SI Ca9-22 [1]: 202
CC50 at 48 h [2]: 1.65 ± 0.17 µM
CC50 at 48 h [3]: 4.04 µM
CC50 [5, 16]: 0.06 µM
CC50 at 48 h [6]: 4.17 ± 1.44 µM
CC50 [7]: 0.06 ± 0.01 µM
SI HSC-2 [7]: 67.3
CC50 [8, 17]: 0.09 ± 0.03 µM
SI HSC-4 [8]: 44.9
IC50 [9]: 4.96 ± 0.28 µM
CC50 at 48 h [10]: 6.3 ± 0.7 µM
effect on the mitochondrial membrane potential (MMP) [12]: interfered with the MMP

O=c1[nH]cc(F)c(=O)[nH]1 [5-fluorouracil]
IC50 [13]: 8.46 µM

C[N+]1(CCC(=O)N2C/C(=C\c3ccccc3)C(=O)/C(=C/c3ccccc3)C2)CCC(=NO)CC1 (stereo not drawn) [Compound 4a, (3~{E},5~{E})-3,5-bis-benzylidine-1-[3-(4-hydroximino-1-piperidyl)propanoyl]piperidin-4-one methiodide]
CC50 [1, 15]: 0.56 ± 0.01 µM
SI Ca9-22 [1]: 30.4
melting point: 173 °C
CC50 at 48 h [2]: 9.65 ± 1.23 µM
CC50 at 48 h [3]: 17 µM
CC50 [5, 16]: 0.86 µM
Average SI [5]: 23.8
CC50 at 48 h [6]: 24.6 ± 1.1 µM
CC50 [7]: 1.45 ± 0.16 µM
SI HSC-2 [7]: 11.7
stability: 1H NMR spectra in dissolution and after 48 h incubation [14]: identical
CC50 [8, 17]: 0.58 ± 0.04 µM
SI HSC-4 [8]: 29.3
IC50 [9]: 7.62 ± 1.44 µM
CC50 at 48 h [10]: 16.8 ± 0.68 µM

C[N+]1(CCC(=O)N2C/C(=C\c3ccc(F)cc3)C(=O)/C(=C/c3ccc(F)cc3)C2)CCC(=NO)CC1 (stereo not drawn) [Compound 4b, (3~{E},5~{E})-3,5-bis[(4-fluorophenyl)methylene]-1-[3-(4-hydroximino-1-piperidyl)propanoyl]piperidin-4-one methiodide]
CC50 [1, 15]: 0.29 ± 0.23 µM
SI Ca9-22 [1]: 28.7
CC50 at 48 h [2]: 4.5 ± 1.39 µM
CC50 at 48 h [3]: 8.31 µM
CC50 [5, 16]: 0.31 µM
Average SI [5]: 29.4
CC50 at 48 h [6]: 9.13 ± 0.48 µM
CC50 [7]: 0.42 ± 0.14 µM
SI HSC-2 [7]: 19.8
CC50 [8, 17]: 0.21 ± 0.01 µM
SI HSC-4 [8]: 39.6
IC50 [9]: 1.05 ± 0.38 µM
CC50 at 48 h [10]: 11.3 ± 2.59 µM
effect on the mitochondrial membrane potential (MMP) [12]: interfered with the MMP
